Laboratory results: patent US20240189287A1, “PERIPHERALLY RESTRICTED CB1 RECEPTOR BLOCKERS AND USES THEREOF” (BIONANOSIM (BNS) LTD, priority 2021, published 2024)
“Also recorded” adds a separate entry of the source. Read-outs that look alike come from different tables or passages of the source.

What was measured:
hERG potassium channels = hERG potassium channels (Homo sapiens (Human), UniProt Q12809); experiment: hERG assay, automated patch clamp (SyncroPatch 384PE); assay type: cell-based; conditions: for potential for cardiotoxicity (QT prolongation): acceptance criteria IC50>100* Ki; for IC50: whole cell hERG currents
Sequence of hERG potassium channels (Q12809 whole entry): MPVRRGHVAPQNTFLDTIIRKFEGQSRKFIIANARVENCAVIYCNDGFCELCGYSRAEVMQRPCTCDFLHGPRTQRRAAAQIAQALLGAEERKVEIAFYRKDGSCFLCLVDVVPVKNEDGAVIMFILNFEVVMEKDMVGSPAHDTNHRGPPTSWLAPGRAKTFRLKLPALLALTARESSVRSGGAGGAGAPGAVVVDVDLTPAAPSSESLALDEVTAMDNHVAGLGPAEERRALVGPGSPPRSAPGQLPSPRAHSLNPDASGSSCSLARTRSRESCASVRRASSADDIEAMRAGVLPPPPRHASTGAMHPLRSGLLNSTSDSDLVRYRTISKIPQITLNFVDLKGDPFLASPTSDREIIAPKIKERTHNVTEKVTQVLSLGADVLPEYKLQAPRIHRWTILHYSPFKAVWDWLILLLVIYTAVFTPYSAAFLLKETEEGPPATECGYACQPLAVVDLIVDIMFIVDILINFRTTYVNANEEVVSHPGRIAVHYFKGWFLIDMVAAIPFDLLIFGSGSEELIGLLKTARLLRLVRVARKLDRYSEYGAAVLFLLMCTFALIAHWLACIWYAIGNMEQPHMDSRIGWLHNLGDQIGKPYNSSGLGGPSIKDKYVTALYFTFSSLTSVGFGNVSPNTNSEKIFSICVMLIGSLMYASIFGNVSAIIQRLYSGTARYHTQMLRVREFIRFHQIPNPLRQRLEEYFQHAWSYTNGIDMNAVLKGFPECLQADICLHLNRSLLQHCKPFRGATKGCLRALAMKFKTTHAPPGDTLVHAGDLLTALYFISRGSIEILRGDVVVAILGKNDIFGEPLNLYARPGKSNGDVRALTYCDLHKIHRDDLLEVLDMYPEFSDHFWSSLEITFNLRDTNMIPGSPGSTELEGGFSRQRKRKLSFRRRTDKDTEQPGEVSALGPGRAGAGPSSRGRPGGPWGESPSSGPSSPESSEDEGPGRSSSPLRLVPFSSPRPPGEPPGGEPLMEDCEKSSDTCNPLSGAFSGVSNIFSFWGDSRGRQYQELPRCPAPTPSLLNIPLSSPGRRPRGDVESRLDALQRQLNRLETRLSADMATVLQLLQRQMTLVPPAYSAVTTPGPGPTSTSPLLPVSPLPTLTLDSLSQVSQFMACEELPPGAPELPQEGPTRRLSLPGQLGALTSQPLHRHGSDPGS

CYP 1A2 = CYP 1A2 (Homo sapiens (Human), UniProt P05177); experiment: CYP inhibition in human liver microsomes; assay type: in vitro ADME
Sequence of CYP 1A2 (P05177 whole entry): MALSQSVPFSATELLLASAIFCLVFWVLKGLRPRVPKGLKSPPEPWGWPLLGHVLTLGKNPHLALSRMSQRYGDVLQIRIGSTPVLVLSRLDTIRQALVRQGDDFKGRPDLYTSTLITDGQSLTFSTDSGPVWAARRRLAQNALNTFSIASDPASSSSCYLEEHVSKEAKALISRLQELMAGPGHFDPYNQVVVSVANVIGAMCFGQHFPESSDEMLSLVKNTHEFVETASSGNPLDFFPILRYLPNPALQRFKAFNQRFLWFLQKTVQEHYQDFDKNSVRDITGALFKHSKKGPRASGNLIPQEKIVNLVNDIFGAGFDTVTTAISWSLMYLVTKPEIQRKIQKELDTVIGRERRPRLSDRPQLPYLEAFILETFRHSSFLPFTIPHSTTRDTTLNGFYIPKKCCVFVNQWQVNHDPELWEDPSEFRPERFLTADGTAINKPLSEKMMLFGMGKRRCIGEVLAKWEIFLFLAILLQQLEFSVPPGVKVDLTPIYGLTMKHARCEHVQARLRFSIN
Method: (§1) To evaluate the in vitro CYP inhibition of BNS808 and BNS822, the compounds were tested in human liver microsomes that are rich in drug metabolizing enzymes, including CYPs 1A2, 2C9, 2C19, 2D6, 3A4.

CYP 2D6 = CYP 2D6 (Homo sapiens (Human), UniProt P10635); experiment: CYP inhibition in human liver microsomes; assay type: in vitro ADME
Sequence of CYP 2D6 (P10635 whole entry): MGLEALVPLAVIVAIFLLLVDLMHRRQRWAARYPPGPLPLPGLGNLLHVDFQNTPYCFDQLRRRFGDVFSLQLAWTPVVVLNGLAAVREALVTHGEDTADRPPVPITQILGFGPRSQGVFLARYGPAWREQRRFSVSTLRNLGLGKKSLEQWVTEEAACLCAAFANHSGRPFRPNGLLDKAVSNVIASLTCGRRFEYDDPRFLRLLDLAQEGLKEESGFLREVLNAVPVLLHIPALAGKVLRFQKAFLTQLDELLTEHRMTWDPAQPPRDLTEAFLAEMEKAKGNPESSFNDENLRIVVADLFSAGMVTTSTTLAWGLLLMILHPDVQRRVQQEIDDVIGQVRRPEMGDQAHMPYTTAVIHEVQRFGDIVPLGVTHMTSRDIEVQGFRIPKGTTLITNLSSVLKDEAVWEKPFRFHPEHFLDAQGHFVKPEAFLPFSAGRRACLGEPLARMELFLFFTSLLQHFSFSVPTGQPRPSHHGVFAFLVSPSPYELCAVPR
Method: as §1

CYP2C19 = CYP2C19 (Homo sapiens (Human), UniProt P33261); experiment: CYP inhibition in human liver microsomes; assay type: in vitro ADME
Sequence of CYP2C19 (P33261 whole entry): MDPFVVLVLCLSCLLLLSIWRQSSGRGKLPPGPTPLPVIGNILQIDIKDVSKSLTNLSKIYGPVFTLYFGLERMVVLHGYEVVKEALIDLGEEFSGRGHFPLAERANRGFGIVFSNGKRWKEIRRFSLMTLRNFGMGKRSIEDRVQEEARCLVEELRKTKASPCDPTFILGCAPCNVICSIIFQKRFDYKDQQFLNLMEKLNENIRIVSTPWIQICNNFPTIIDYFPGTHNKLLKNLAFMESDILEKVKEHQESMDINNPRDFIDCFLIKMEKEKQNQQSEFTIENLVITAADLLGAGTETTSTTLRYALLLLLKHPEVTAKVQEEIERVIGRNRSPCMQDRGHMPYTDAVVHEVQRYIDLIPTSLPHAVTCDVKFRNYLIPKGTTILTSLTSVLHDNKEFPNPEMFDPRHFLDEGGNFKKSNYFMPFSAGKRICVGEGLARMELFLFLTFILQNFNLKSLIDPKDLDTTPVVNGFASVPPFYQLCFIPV
Method: as §1

CYP2C9 = CYP2C9 (Homo sapiens (Human), UniProt P11712); experiment: CYP inhibition in human liver microsomes; assay type: in vitro ADME
Sequence of CYP2C9 (P11712 whole entry): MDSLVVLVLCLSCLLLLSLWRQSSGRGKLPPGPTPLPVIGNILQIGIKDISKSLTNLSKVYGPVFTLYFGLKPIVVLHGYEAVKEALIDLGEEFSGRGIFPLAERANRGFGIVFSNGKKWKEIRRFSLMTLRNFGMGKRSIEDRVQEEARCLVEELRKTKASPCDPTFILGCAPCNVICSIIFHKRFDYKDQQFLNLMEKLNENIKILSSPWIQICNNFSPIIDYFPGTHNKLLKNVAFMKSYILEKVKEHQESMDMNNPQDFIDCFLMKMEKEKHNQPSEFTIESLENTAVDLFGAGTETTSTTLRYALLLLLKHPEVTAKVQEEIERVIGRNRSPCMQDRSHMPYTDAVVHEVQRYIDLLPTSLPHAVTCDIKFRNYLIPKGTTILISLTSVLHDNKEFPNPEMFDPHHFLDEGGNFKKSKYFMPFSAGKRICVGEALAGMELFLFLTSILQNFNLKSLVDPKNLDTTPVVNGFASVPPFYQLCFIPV
Method: as §1

CYP3A4 = CYP3A4 (Homo sapiens (Human), UniProt P08684); experiment: CYP inhibition in human liver microsomes; assay type: in vitro ADME; conditions: for IC50: fifth value column, read-out: IC50 (μM) CYP 3A4
Sequence of CYP3A4 (P08684 whole entry): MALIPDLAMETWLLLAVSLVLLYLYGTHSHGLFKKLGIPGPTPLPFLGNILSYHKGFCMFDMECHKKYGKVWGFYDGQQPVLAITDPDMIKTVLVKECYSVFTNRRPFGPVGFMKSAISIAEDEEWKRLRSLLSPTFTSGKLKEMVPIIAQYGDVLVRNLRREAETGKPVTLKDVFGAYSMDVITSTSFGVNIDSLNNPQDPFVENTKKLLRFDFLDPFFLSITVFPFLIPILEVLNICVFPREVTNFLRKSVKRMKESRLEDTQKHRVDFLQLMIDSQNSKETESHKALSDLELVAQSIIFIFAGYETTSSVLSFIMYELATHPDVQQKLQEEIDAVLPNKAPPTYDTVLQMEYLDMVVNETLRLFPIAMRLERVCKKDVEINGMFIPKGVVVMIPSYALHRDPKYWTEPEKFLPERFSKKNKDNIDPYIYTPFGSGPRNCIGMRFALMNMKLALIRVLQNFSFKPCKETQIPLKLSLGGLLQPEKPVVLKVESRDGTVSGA
Method: as §1

[1] = Tissue distribution: brain, plasma and liver levels after oral dosing; assay type: in vivo, C57BL/6J mice
Method: Tissue distribution and pharmacokinetics: Tissue levels of antagonist: 3 male C57BL/6J mice (7-9 weeks, PO group) were used in this study. Mice were fasted prior to administration of test article and had access to food 4 hours post dosing. Appropriate amount of test article was accurately weighted and mixed with the appropriate volume of vehicle to get a clear oral solution. The formulation was prepared on the day of dosing, and mice were dosed via oral gavage up to 4 hr after formulation was prepared. After 1 hour, mice were scarified and about 200 μL blood was collected from cardiac puncture followed by plasma preparation. Brain and liver were removed and further processed. Dose formulation and sample analysis was performed by LC-MS/MS method.
The peripherality of selected BB8 conjugates (BNS) was evaluated in vivo measuring their respective brain, plasma, and liver levels 1 hr following 10 mg/kg oral administration.

[2] = test system: DIO (Diet-Induced-Obese) mice; experiment: In vivo efficacy study in Diet Induced Obesity (DIO) model; set-up: species or system C57BL/6J mice
Method: In vivo efficacy study in Diet Induced Obesity (DIO) model: Male C57BL/6J mice were kept on a high fat diet for 24 weeks. […] Thereafter, metabolic assessment was performed in order to evaluate the efficacy of the treatment. The efficacy was evaluated by measurements of the following parameters: • 1. Body weight and food intake, • 2. Total energy expenditure (TEE) and respiratory quotient (RQ). • 3. Fat and Carbohydrate oxidation (FO and CHO, respectively), • 4. Total ambulation, • 5. Glucose homeostasis, • 6. Hepatic Steatosis and Liver Injury, • 7. Lipid profile, • 8. Kidney function.
Animals: The experimental protocol used is approved by the Institutional Animal Care and Use Committee of the Hebrew University. Male, 25 weeks old, C57BL/6J mice were purchased from Jackson laboratories. Mice were maintained under a 12-h light/dark cycle and fed ad libitum. To maintain diet-induced obesity, C57BL/6J mice were fed with high-fat diet (HFD) (60% of calories from fat, 20% from protein, and 20% from carbohydrates; Research Diet, D12492) for overall 30 weeks.
[…] Body weight and food intake were monitored daily. Total body fat and lean masses were determined by EchoMRI-100H™ (Echo Medical Systems LLC, Houston, TX, USA). 24 h urine was collected 2-4 days before euthanasia using mouse metabolic cages (CCS2000 Chiller System, Hatteras Instruments, NC, USA). At the end of the observation period, mice were euthanized by a cervical dislocation under anesthesia, the kidneys, liver, brain, spleen, fat, and pancreas were removed, and samples were fixed in buffered 4% formalin (for histopathological analysis) or snap frozen (for biochemistry analysis). Trunk blood was collected for determining the biochemical parameters.
Multi-parameter metabolic assessment: Metabolic profile of the mice was assessed by using the Promethion High-Definition Behavioral Phenotyping System
(Sable Instruments, Inc., Las Vegas, NV, USA). Data acquisition and instrument control were performed using MetaScreen software version 2.2.18.0, and the obtained raw data were processed using ExpeData version 1.8.4 using an analysis script detailing all aspects of data transformation. Mice with free access to food and water were subjected to a standard 12 hr light/12 hr dark cycle, which consisted of 48 hr acclimation period followed by 24 hr of sampling. Respiratory gases were measured by using the GA-3 gas analyzer (Sable Systems, Inc., Las Vegas, NV, USA) using a pull-mode, negative-pressure system. Air flow was measured and controlled by FR-8 (Sable Systems, Inc., Las Vegas, NV, USA), with a set flow rate of 2000 mL/min. Water vapor was continuously measured and its dilution effect on O2 and CO2 was mathematically compensated. Effective mass was calculated by [body mass]0.75. Fat oxidation (FO) and carbohydrate oxidation (CHO) were calculated as FO=1.69×VO2−1.69×VCO2 and CHO=4.57×VCO2−3.23×VO2 and expressed as g/d/kg^eff.Mass.
Locomotor activity: Locomotor activity was quantified by the number of disruptions of infrared XYZ beam arrays with a beam spacing of 0.25 cm in the Promethion High-Definition Behavioral Phenotyping System (Sable Instruments, Inc., Las Vegas, NV, USA).
Glucose tolerance (ipGTT) test and insulin sensitivity tests (ipIST): Mice that fasted overnight were injected with glucose (1.5 g/kg, IP), followed by a tail blood collection at 0, 15, 30, 45, 60, 90, 120 min. Blood glucose levels were determined using the Elite glucometer (Bayer, Pittsburgh, PA). Two days later, mice were fasted for 6 hr before receiving insulin (0.75 U/kg, IP; Eli Lilly, DC, USA or Actrapid® vial, novo nordisk A/S, Denmark), and blood glucose levels were determined at the same intervals.
Creatinine clearance was calculated using urine and serum creatinine levels (CCr mL/h=Urine creatinine mg/dL×Urine volume/Serum creatinine mg/dL×24 hr). Fasting blood glucose was measured using the Elite glucometer (Bayer, Pittsburgh, PA). […]

[3] = male, C57BL/6J, mouse, in vivo, po, 10 mg/kg

**Q.** What does the source list for `O=S(=O)(NC1CCCOc2c1nn(-c1ccccc1Cl)c2-c1ccc(Cl)cc1)c1ccc(Cl)cc1` (stereo not shown) [BNS808, 4-chloro-N-[2-(2-chlorophenyl)-3-(4-chlorophenyl)-5,6,7,8-tetrahydrooxepino[3,2-c]pyrazol-8-yl]benzenesulfonamide]?
**A.** Hill slope (hERG potassium channels): 0.89; potential for cardiotoxicity (QT prolongation) (hERG potassium channels): low; IC50 (hERG potassium channels): 5.39 µM; IC50 (CYP 1A2): > 50 µM; IC50 (CYP 2D6): > 50 µM; IC50 (CYP2C19): 18 µM; inhibitor grade, CYP2C19 (CYP2C19; human liver microsomes): weak-moderate inhibitor; IC50 (CYP2C9): 8.33 µM; inhibitor grade, CYP2C9 (CYP2C9; human liver microsomes): weak-moderate inhibitor; inhibitor grade, CYP3A4(M) (CYP3A4): moderate inhibitor; IC50 (CYP3A4): 2.99 µM; Liver/Plasma ratio ([1]; 1 h post 10 mg/kg oral administration, C57BL/6J male mice): 13.0; Kp at 1 h ([1]; mouse, in vivo, 1 h post 10 mg/kg oral administration, C57BL/6J male mice, read-out: Brain/Plasma ratio): 1.07; reduction of the body weight ([2]; 1 mg/kg daily PO, DIO mice on HFD, after 24 days): ~15%; ambulatory activity ([2]; 1 mg/kg/day continued PO, DIO mice): did not affect

**Q.** With `Cc1ccc(C)c(OCCCC(C)(C)C(=O)NC2CCCOc3c2nn(-c2ccccc2Cl)c3-c2ccc(Cl)cc2)c1` (stereo not shown) [BNS822, N-[2-(2-chlorophenyl)-3-(4-chlorophenyl)-5,6,7,8-tetrahydrooxepino[3,2-c]pyrazol-8-yl]-5-(2,5-dimethylphenoxy)-2,2-dimethyl-pentanamide] as the compound, how does the “potential for cardiotoxicity (QT prolongation)” value (hERG potassium channels) read?
**A.** low

**Q.** What about the IC50 (hERG potassium channels) of the same compound?
**A.** > 30 µM

**Q.** What about the IC50 (CYP 1A2; human liver microsomes, isozyme order of b227, read-out: IC50 (μM) CYP 1A2) of the same compound?
**A.** > 50 µM

**Q.** And the IC50 (CYP 2D6; human liver microsomes, read-out: IC50 (μM) CYP 2D6)?
**A.** > 50 µM

**Q.** What about the IC50 (CYP2C19; human liver microsomes, read-out: IC50 (μM) CYP 2C19) of the same compound?
**A.** > 50 µM

**Q.** What about the “inhibitor grade, CYP2C9” value (CYP2C9; human liver microsomes) of the same compound?
**A.** weak-moderate inhibitor

**Q.** And the IC50 (CYP2C9; human liver microsomes, read-out: IC50 (μM) CYP 2C9)?
**A.** 8.52 µM

**Q.** And the IC50 (CYP3A4)?
**A.** > 50 µM

**Q.** And the Kp at 1 h [1, 3]?
**A.** < 0.02

**Q.** What about the concentration at 1 h [1, 3] of the same compound?
**A.** 1.34 ng/g

**Q.** What about the Brain/Plasma ratio ([1]; male, C57BL/6J, mouse, in vivo, po, 10 mg/kg, 1 h) of the same compound?
**A.** <0.02

**Q.** And the weight loss ([2]; 20 mg/kg continued administration, DIO mice)?
**A.** 20%

**Q.** And the body weight ([2]; 20 mg/kg/day PO, DIO mice)?
**A.** significantly reduced

**Q.** And the food intake ([2]; 20 mg/kg/day PO, DIO mice)?
**A.** significant decrease

**Q.** What about the “circulating fed insulin (plasma) levels” value ([2]; 20 mg/kg/day PO, DIO/HFD mice) of the same compound?
**A.** significantly lower; also recorded: significant reductions

**Q.** What about the “glucose levels in fed and fasting conditions” value ([2]; 20 mg/kg/day PO, DIO/HFD mice) of the same compound?
**A.** no change; also recorded: no significant changes

**Q.** What about the “glucose tolerance (GTT, AUC)” value ([2]; 20 mg/kg/day PO, DIO/HFD mice) of the same compound?
**A.** improved; also recorded: significant reductions

**Q.** And the “insulin sensitivity (ITT)” value ([2]; 20 mg/kg/day PO, DIO/HFD mice)?
**A.** no improvement; also recorded: no significant changes

**Q.** And the ALT levels ([2]; 20 mg/kg/day PO, HFD mice)?
**A.** Significant reductions

**Q.** And the “fat vacuoles deposition in the liver” value ([2]; 20 mg/kg/day PO, HFD mice)?
**A.** reduction

**Q.** What about the “liver TG content” value ([2]; 20 mg/kg/day PO, HFD mice) of the same compound?
**A.** Significant reductions

**Q.** And the liver cholesterol ([2]; 20 mg/kg/day PO, HFD mice)?
**A.** not
